From patent publication US7326700B2, “Cyclohexenyl phenyl carboxamides tocolytic oxytocin receptor antagonists” (Wyeth, priority 2001, dated 2008)
pIC50: −log10 of the molar value. Counter-ions that a name gives are not always drawn.

The compounds below were run against T1, human vasopressin V2 receptor subtype (Homo sapiens, UniProt P30518) (assay: Vasopressin binding in CHO cell membranes expressing human vasopressin V2 subtype receptors ([3H]arginine vasopressin radioligand binding)). Conditions: 100 nM.
T1 construct: host or cells: CHO cells, stably transfected (pZeoSV vector)
Text: Chinese Hamster Ovary (CHO) cells stably transfected with the human V2 subtype receptors were obtained from M. Thibonnier, Case Western Reserve University School of Medicine, Cleveland, Ohio.
CHO cells transfected with the human vasopressin V2 subtype receptors obtained from M. Thibonnier (pZeoSV vector) are allowed to grow to confluency (approx. >90%) in T-150 flasks under sterile conditions, in a cell culture medium consisting of F-12 Nutrient Mixture (HAM) with L-glutamine (Gibco Cat. #11765-054) containing 15 mM HEPES (Gibco Cat. #15630-080), 1% antibiotic/antimycotic (add 5 mL 100×, Gibco Cat. #15240-062 per 500 mL F-12), 250 μg/mL Zeocin (add 1.25 mL of 100 mg/mL Invitrogen R-250-01 per 500 mL F-12) and 10% Fetal Bovine Serum (Qualified, heat inactivated, Gibco Cat. #16140-063). The medium is removed by aspiration and the cells washed with 10 mL of Hank's Balanced Salt solution (Gibco Cat. #14175-095). The salt solution is removed by aspiration and the cells trypsinized with 5 mL of trypsin-EDTA (0.05% trypsin, 0.53 mM EDTA-4Na, Gibco Cat. #25300-070) for 1 min. The trypsin is removed by aspiration and the cells dislodged by tapping. Cell Culture medium (e.g. 30 mL for 1:30 split) is immediately added and mixed well to inactivate trypsin. 1 mL of detached cells is added to new culture flasks containing fresh Cell Culture medium (e.g. into 25 mL per T-150 flask), and mixed gently. The cells are incubated at 37° C. in 5% CO2. The medium is changed at 3 to 4 day interval (or as appropriate). The cells grow to confluency (approx. >75%-95%) within 7-8 days. All steps are done under sterile conditions.
The cells are washed twice gently with Hank's Balanced Salt solution (e.g. use 10 mL per T-150 flask). The excess solution is removed and the cells bathed for 15-30 min. in an enzyme-free Cell Dissociation Buffer (e.g. use 8 mL Hank's Based, Gibco Cat. #13150-016 per T-150 flask) until cells are loosened. The contents are transferred to centrifuge tubes (50 mL) kept in an ice bath. All subsequent steps are done at 4° C. The tubes are centrifuged at 300×g for 15 min (1380 rpm on SORVAL, Model RT6000D, using the rotor for 50 mL tubes). The supernatant is discarded and the cells suspended in homogeneizing buffer(10 mM Tris-HCl containing 0.25 M sucrose and 1 mM EDTA, pH 7.4) ensuring that the volume of the buffer is about ten times the volume of the cell pellet. The cells are pooled into a centrifuge tube (50 mL) and homogenized with Polytron at setting 6 for 10 sec. The homogenate is transferred into a Potter-Elvjehm homogeneizer and homogenized with 3 strokes. The homogenate is centrifuged at 1500×g for 60 min at 4° C. (3100 rpm using SORVAL, model RT6000D, using the rotor for 50 mL tubes). The pellet is discarded. The supernatant is centrifuged at 100,000×g for 60 min. at 4° C. (Beckman L8-80M ultracentrifuge; spin at 37,500 rpm with rotor type 70 Ti for 50 mL tubes; 38,000 rpm with type 80 Ti for 15 mL tubes; or 35,800 rpm with rotor type 45Ti). The supernantant is discarded and the pellet suspended in 3 to 4 mL of Tris buffer (50 mM TRIS-HCl, pH 7.4). The protein content is estimated by the Bradford or Lowry method. The volume of the membrane suspension is adjusted with the membrane buffer (50 mM Tris-HCl containing 0.1% BSA and 0.1 mM PMSF) to give 3.0 mg/mL (or as appropriate) of protein. The membranes are aliquoted and stored at −70° C.
In wells of a 96-well format microtiter plate, is added 90, 110 or 130 μL (to make up a final volume of 200 μL) of assay buffer containing 50 mM of Tris-HCl (pH 7.4), […], 1 mg % aprotinin, 1 mg % leupeptin, 2 mg % 1,10-phenanthroline, 10 mg % trypsin inhibitor, and 0.1 mM PMSF. The inhibitors are added on the day of the experiment. The components are mixed at room temperature, and then kept in ice bath following adjustment of the pH to 7.4. […]

For `Cc1cc(C(=O)N2Cc3ccc(C(=O)N4CCN(C)CC4)n3Cc3ccccc32)ccc1C1=CCCc2ccccc21` [Example 6, {10-[4-(3,4-Dihydro-naphthalen-1-yl)-3-methyl-benzoyl]-10,11-dihydro-5H-benzo[e]pyrrolo[1,2-a][1,4]diazepin-3-yl}-(4-methyl-piperazin-1-yl)-methanone], which inhibition at 0.1 µM is on record?
Its inhibition at 0.1 µM is 17%.

`Cc1cc(C(=O)N2Cc3ccc(C(=O)N(C)CCN(C)C)n3Cc3ccccc32)ccc1C1=CCCCC1` [Example 15, 10-[4-(1-Cyclohex-1-en-1-yl)-3-methylbenzoyl]-N-[2-(dimethylamino)ethyl]-N-methyl-10,11-dihydro-5H-pyrrolo[2,1-c][1,4]benzodiazepine-3-carboxamide] was tested. Which “V2 % inhibition @ 100 nM” value did it give?
Its value is 5%.

For `Cc1cc(C(=O)N2Cc3ccc(C(=O)NCCN4CCCCC4)n3Cc3ccccc32)ccc1C1=CCCCC1` [Example 20, 10-[4-(1-Cyclohex-1-en-1-yl)-3-methylbenzoyl]-N-[2-(1-piperidinyl)ethyl]-10,11-dihydro-5H-pyrrolo[2,1-c][1,4]benzodiazepine-3-carboxamide], which “V2 % inhibition @ 100 nM” value is on record?
Its value is 14%.

Which “V2 % inhibition @ 100 nM” value does the source give for `Cc1cc(C(=O)N2Cc3ccc(C(=O)NCCC4CCCN4C)n3Cc3ccccc32)ccc1C1=CCCCC1` (stereo not shown) [Example 21, 10-[4-(1-Cyclohex-1-en-1-yl)-3-methylbenzoyl]-N-[2-(1-methyl-2-pyrrolidinyl)ethyl]-10,11-dihydro-5H-pyrrolo[2,1-c][1,4]benzodiazepine-3-carboxamide] here?
The value was 11%.

How did the “V2 % inhibition @ 100 nM” value turn out when `Cc1cc(C(=O)N2Cc3ccc(C(=O)N4CCC(N5CCCC5)CC4)n3Cc3ccccc32)ccc1C1=CCCCC1` [Example 19, {10-[4-(1-Cyclohex-1-en-1-yl)-3-methylbenzoyl]-10,11-dihydro-5H-pyrrolo[2,1c][1,4]benzodiazepin-3-yl}[4-(1-pyrrolidinyl)-1-piperidinyl]methanone] was run?
Its value is 18%.

For `Cc1cc(C(=O)N2Cc3ccc(C(=O)NCCCn4ccnc4)n3Cc3ccccc32)ccc1C1=CCCCC1` [Example 18, 10-[4-(1-Cyclohex-1-en-1-yl)-3-methylbenzoyl]-N-[3-(1H-imidazol-1-yl)propyl]10,11-dihydro-5H-pyrrolo[2,1-c][1,4]benzodiazepine-3-carboxamide], which “V2 % inhibition @ 100 nM” value is on record?
Its value is 20%.

`Cc1cc(C(=O)N2Cc3ccc(C(=O)N(C)CCCN(C)C)n3Cc3ccccc32)ccc1C1=CCCCC1` [Example 16, 10-[4-(1-Cyclohex-1-en-1-yl)-3-methylbenzoyl]-N-[3-(dimethylamino)propyl]-N-methyl-10,11-dihydro-5H-pyrrolo[2,1-c][1 ,4]benzodiazepine-3-carboxamide] was tested. Which “V2 % inhibition @ 100 nM” value did it give?
The value was 10%.

With `Cc1cc(C(=O)N2Cc3ccc(C(=O)N4CCN(C)CC4)n3Cc3ccccc32)ccc1C1=CCCCC1` [Example 4, [10-(4-Cyclohex-1-en-1-yl-3-methyl-benzoyl)-10,11-dihydro-5H-pyrrolo[2,1-c][1,4]benzodiazepin-3-yl]-(4-methyl-piperazin-1-yl)-methanone] as the compound, how does the inhibition at 0.1 µM read?
The inhibition at 0.1 µM was 11%.

For `Cc1cc(C(=O)N2Cc3ccc(C(=O)N4CC[C@@H](N(C)C)C4)n3Cc3ccccc32)ccc1C1=CCCCC1` [Example 27, {10-[4-(1-Cyclohex-1-en-1-yl)-3-methylbenzoyl]-10,11-dihydro-5H-pyrrolo[2,1-c][1,4]benzodiazepin-3-yl}[(3R)-3-(dimethylamino)pyrrolidinyl]methanone], which “V2 % inhibition @ 100 nM” value is on record?
The value was 10%.

How did the “V2 % inhibition @ 100 nM” value turn out when `C=CCN1CCN(C(=O)c2ccc3n2Cc2ccccc2N(C(=O)c2ccc(C4=CCCCC4)c(C)c2)C3)CC1` [Example 24, (4-Allyl-1-piperazinyl){10-[4-(1-cyclohex-1-en-1-yl)-3-methylbenzoyl]-10,11-dihydro-5H-pyrrolo[2,1-c][1,4]benzodiazepin-3-yl}methanone] was run?
The value was 12%.

For `Cc1cc(C(=O)N2Cc3ccc(C(=O)N4CCN(C(C)C)CC4)n3Cc3ccccc32)ccc1C1=CCCCC1` [Example 25, {10-[4-(1-Cyclohex-1-en-1-yl)-3-methylbenzoyl]-1 0,11-dihydro-5H-pyrrolo[2,1-c][1,4]benzodiazepin-3-yl}(4-isopropyl-1-piperazinyl)methanone], which “V2 % inhibition @ 100 nM” value is on record?
Its value is 10%.

Which inhibition at 0.1 µM does the source give for `Cc1cc(C(=O)N2Cc3ccc(C(=O)N4CCN(CCCN(C)C)CC4)n3Cc3ccccc32)ccc1C1=CCCCC1` [Example 5, [10-(4-Cyclohex-1-en-1-yl-3-methyl-benzoyl)-10,11-dihydro-5H-pyrrolo[2,1-c][1,4]benzodiazepin-3-yl]-[4-(3-dimethylamino-propyl)-piperazin-1-yl]-methanone] here?
Its inhibition at 0.1 µM is 19%.

For `Cc1cc(C(=O)N2Cc3ccc(C(=O)N4CCN(CCN5CCOCC5)CC4)n3Cc3ccccc32)ccc1C1=CCCCC1` [Example 23, {10-[4-(1-Cyclohex-1-en-1-yl)-3-methylbenzoyl]-10,11-dihydro-5H-pyrrolo[2,1-c][1,4]benzodiazepin-3-yl}{4-[2-(4-morpholinyl)ethyl]-1-piperazinyl}methanone], which “V2 % inhibition @ 100 nM” value is on record?
The value was 18%.

For `Cc1cc(C(=O)N2Cc3ccc(C(=O)N4CCC(N5CCCCC5)CC4)n3Cc3ccccc32)ccc1C1=CCCCC1` [Example 17, {10-[4-(1-Cyclohex-1-en-1-yl)-3-methylbenzoyl]-10,11-dihydro-5H-pyrrolo[2,1-c][1,4]benzodiazepin-3-yl}[4-(1-piperidinyl)-1-piperidinyl]methanone], which “V2 % inhibition @ 100 nM” value is on record?
The value was 2%.

How did the inhibition at 0.1 µM turn out when `Cc1cc(C(=O)N2Cc3ccc(C(=O)N4CCN(CCCN(C)C)CC4)n3Cc3ccccc32)ccc1C1=CCCc2ccccc21` [Example 7, {10-[4-(3,4-Dihydro-naphthalen-1-yl)-3-methyl-benzoyl]-10,11-dihydro-5H-pyrrolo[2,1-c][1,4]benzodiazepin-3-yl}-[4-(3-dimethylamino-propyl)-piperazin-1-yl]-methanone] was run?
The inhibition at 0.1 µM was 30%.

For `Cc1cc(C(=O)N2Cc3ccc(C(=O)N4CCC[C@H]4CN4CCCC4)n3Cc3ccccc32)ccc1C1=CCCCC1` [Example 26, {10-[4-(1-Cyclohex-1-en-1-yl)-3-methylbenzoyl]-10,11-dihydro-5H-pyrrolo[2,1-c][1,4]benzodiazepin-3-yl}[(2S)-2-(1-pyrrolidinylmethyl)pyrrolidinyl]methanone], which “V2 % inhibition @ 100 nM” value is on record?
The value was 9%.

For `Cc1cc(C(=O)N2Cc3ccc(C(=O)N4CCN(CCN(C)C)CC4)n3Cc3ccccc32)ccc1C1=CCCCC1` [Example 22, {10-[4-(1-Cyclohex-1-en-1-yl)-3-methylbenzoyl]-10,11-dihydro-5H-pyrrolo[2,1-c][1,4]benzodiazepin-3-yl}{4-[2-(dimethylamino)ethyl]-1-piperazinyl}methanone], which “V2 % inhibition @ 100 nM” value is on record?
Its value is 13%.

Same assay, conditions: value in parentheses

With `COc1cc(C2=CCCCC2)c(Cl)cc1C(=O)N1Cc2ccc(C(=O)N(C)CCCN(C)C)n2Cc2ccccc21` [Example 3, 10-(5-Chloro-4-cyclohex-1-en-1-yl-2-methoxybenzoyl)-N-[3-(dimethylamino)propyl]-N-methyl-10,11-dihydro-5H-pyrrolo[2,1-c][1,4]benzodiazepine-3-carboxamide citric acid salt] as the compound, how does the pIC50 read?
Its pIC50 is 5.23.

How did the pIC50 turn out when “{10-[4-(1-Cyclohexen-1-yl)-3-methylbenzoyl]-10,11-dihydro-5H-pyrrolo[2,1-c][1,4]benzodiazepin-3-yl}(4-methyl-piperazin-1-yl)methanone [Example 12]” was run?
Its pIC50 is < 6.00.
